Values joined by “and” are separate entries in the source; they are usually repeats but may differ in a detail not shown here. Equal entries are not always repeated.
Columns and labels:
[1] = target: T1, Cholinesterase (Homo sapiens, UniProt P06276); test: Inhibition of BuChE (unknown origin) using acetylthiocholine iodide as substrate incubated for 20 mins followed by substrate addition by Ellman's method
[2] = target: T2, Acetylcholinesterase (Homo sapiens, UniProt P22303); test: Inhibition of AChE (unknown origin) using acetylthiocholine iodide as substrate incubated for 20 mins followed by substrate addition by Ellman's method
[3] = target: cGMP-specific 3',5'-cyclic phosphodiesterase (Homo sapiens, UniProt O76074); test: Binding affinity to PDE5 (unknown origin) assessed as inhibition constant
[4] = target: T3, 5-hydroxytryptamine receptor 2C (Homo sapiens, UniProt P28335); test: Binding affinity to 5-HT2C (unknown origin) assessed as inhibition constant
T3 sequence (P28335 whole entry): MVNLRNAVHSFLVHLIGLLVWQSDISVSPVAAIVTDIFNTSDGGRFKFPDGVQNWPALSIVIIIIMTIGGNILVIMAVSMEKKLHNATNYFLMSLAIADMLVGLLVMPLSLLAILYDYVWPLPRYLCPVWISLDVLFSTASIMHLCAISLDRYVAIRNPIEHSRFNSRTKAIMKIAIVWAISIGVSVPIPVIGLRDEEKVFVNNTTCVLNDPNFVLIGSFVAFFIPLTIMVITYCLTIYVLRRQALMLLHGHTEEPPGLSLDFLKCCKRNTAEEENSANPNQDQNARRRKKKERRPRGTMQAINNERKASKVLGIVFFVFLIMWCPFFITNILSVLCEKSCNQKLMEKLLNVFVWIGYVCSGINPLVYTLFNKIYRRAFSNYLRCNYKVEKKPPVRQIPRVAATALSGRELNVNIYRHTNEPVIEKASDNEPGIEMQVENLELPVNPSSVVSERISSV

[5] = target: Glutamate receptor ionotropic, NMDA 2B (Homo sapiens, UniProt Q05586+Q13224); test: Inhibition of NMDA receptor NR2B subunit (unknown origin)
[6] = target: GABA-A receptor; anion channel; test: Displacement of [3H]flunitrazepam from GABAA (unknown origin ) receptor by radioligand binding assay; assay type: protein-complex assay, Homo sapiens
[7] = target: Gamma-aminobutyric acid receptor subunit alpha-6 (Homo sapiens, UniProt Q16445); test: Binding affinity to human recombinant GABAA alpha6 receptor assessed as inhibition constant incubated for 1 hrs by liquid scintillation counting analysis
[8] = target: T4, Gamma-aminobutyric acid receptor subunit alpha-3 (Homo sapiens, UniProt P34903); test: Binding affinity to human recombinant GABAA alpha3 receptor assessed as inhibition constant incubated for 1 hrs by liquid scintillation counting analysis
T4 sequence (P34903 whole entry): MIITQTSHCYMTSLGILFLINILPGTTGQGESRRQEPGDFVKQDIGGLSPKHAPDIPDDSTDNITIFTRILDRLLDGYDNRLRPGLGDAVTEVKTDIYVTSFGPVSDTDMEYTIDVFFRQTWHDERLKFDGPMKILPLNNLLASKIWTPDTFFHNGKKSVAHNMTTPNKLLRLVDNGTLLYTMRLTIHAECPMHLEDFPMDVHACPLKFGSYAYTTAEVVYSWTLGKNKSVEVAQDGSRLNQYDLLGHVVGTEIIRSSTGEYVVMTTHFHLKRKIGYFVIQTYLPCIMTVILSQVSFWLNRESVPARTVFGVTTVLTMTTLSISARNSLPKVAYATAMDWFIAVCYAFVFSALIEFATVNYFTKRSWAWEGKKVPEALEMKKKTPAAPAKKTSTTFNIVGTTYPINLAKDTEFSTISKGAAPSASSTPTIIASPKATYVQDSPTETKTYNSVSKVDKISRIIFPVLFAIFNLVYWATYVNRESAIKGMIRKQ

[9] = target: T5, Gamma-aminobutyric acid receptor subunit alpha-1 (Homo sapiens, UniProt P14867); test: Binding affinity to human recombinant GABAA alpha1 receptor assessed as inhibition constant incubated for 1 hrs by liquid scintillation counting analysis
T5 sequence (P14867 whole entry): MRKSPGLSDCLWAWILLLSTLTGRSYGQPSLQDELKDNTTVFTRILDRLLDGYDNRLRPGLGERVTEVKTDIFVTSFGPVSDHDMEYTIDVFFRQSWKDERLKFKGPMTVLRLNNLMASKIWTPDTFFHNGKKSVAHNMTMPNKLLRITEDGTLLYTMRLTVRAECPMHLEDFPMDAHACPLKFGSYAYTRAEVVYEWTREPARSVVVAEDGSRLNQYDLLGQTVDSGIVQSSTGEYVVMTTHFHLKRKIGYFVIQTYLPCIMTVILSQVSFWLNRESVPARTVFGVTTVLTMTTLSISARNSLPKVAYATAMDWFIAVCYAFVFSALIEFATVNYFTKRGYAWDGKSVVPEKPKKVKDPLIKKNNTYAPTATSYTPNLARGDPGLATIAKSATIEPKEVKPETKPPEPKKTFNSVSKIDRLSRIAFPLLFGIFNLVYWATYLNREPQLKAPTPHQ

[10] = target: T6, Gamma-aminobutyric acid receptor subunit alpha-5 (Homo sapiens, UniProt P31644); test: Binding affinity to human recombinant GABAA alpha5 receptor assessed as inhibition constant incubated for 1 hrs by liquid scintillation counting analysis
T6 sequence (P31644 whole entry): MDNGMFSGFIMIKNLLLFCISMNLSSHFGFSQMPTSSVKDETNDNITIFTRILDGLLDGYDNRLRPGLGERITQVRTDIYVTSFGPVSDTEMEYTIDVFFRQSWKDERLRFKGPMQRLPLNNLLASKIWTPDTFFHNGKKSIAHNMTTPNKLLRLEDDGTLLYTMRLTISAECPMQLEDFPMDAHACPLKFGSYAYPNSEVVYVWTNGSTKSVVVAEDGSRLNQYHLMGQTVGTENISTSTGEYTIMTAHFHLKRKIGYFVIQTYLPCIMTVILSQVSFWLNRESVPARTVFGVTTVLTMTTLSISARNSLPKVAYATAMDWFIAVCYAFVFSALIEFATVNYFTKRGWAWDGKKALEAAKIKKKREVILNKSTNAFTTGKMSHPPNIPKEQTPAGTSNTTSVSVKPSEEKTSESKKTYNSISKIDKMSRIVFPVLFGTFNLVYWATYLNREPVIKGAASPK

[11] = target: T7, Gamma-aminobutyric acid receptor subunit alpha-2 (Homo sapiens, UniProt P47869); test: Binding affinity to human recombinant GABAA alpha2 receptor assessed as inhibition constant incubated for 1 hrs by liquid scintillation counting analysis
T7 sequence (P47869 whole entry): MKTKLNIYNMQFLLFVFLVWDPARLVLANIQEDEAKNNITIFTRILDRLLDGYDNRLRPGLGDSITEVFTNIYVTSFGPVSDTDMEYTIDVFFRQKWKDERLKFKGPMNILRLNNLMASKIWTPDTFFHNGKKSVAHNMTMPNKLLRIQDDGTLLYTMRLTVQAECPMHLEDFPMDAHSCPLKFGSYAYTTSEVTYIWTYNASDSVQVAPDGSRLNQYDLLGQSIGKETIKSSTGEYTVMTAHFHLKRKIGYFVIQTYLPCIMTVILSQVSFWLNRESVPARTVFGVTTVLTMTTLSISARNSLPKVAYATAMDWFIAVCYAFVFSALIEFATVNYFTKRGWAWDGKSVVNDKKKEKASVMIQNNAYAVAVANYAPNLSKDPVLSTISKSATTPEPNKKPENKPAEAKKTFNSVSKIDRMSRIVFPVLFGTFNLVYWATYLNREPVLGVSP

[12] = target: Gamma-aminobutyric acid receptor subunit alpha-4 (Homo sapiens, UniProt P48169); test: Binding affinity to human recombinant GABAA alpha4 receptor assessed as inhibition constant incubated for 1 hrs by liquid scintillation counting analysis
[13] = target: T2, Acetylcholinesterase; test: Inhibition of AChE (unknown origin) incubated for 40 mins by Ellman's method
[14] = target: T2, Acetylcholinesterase; test: Inhibition of AChE (unknown origin) by Ellman's method
[15] = target: T1, Cholinesterase; test: Inhibition of BuChE (unknown origin)
[16] = target: T2, Acetylcholinesterase; test: Inhibition of AChE (unknown origin)
[17] = target: 5-hydroxytryptamine receptor 5A (Homo sapiens, UniProt P47898); test: Binding affinity to 5-HT5AR (unknown origin) assessed as inhibition constant
[18] = target: 5-hydroxytryptamine receptor 2B (Homo sapiens, UniProt P41595); test: Binding affinity to 5-HT2BR (unknown origin) assessed as inhibition constant
5-hydroxytryptamine receptor 2B, sequence (P41595 whole entry): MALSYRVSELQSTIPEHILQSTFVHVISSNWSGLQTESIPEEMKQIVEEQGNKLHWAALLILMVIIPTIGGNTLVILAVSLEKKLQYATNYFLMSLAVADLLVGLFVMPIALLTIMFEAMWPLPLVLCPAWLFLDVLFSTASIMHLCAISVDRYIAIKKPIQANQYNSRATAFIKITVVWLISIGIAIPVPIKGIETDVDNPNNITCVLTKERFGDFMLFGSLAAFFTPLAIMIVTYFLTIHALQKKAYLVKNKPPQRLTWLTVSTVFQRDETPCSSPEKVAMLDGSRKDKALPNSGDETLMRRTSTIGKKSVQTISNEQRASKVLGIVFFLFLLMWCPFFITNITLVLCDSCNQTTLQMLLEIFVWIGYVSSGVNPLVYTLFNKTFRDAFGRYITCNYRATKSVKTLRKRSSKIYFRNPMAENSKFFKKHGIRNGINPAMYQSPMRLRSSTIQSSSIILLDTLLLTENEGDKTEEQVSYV

Gamma-aminobutyric acid receptor subunit alpha-6, sequence (Q16445 whole entry): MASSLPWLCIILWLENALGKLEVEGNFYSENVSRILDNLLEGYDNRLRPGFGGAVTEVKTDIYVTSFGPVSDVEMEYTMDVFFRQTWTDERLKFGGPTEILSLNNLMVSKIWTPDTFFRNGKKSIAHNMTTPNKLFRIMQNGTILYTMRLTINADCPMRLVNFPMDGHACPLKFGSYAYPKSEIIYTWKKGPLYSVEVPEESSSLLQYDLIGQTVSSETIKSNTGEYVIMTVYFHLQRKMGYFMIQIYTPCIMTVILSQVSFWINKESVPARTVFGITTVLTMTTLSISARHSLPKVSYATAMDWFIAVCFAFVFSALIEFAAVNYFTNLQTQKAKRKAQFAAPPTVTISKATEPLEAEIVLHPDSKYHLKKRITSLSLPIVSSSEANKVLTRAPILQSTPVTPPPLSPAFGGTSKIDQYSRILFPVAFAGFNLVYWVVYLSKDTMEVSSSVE
Gamma-aminobutyric acid receptor subunit alpha-4, sequence (P48169 whole entry): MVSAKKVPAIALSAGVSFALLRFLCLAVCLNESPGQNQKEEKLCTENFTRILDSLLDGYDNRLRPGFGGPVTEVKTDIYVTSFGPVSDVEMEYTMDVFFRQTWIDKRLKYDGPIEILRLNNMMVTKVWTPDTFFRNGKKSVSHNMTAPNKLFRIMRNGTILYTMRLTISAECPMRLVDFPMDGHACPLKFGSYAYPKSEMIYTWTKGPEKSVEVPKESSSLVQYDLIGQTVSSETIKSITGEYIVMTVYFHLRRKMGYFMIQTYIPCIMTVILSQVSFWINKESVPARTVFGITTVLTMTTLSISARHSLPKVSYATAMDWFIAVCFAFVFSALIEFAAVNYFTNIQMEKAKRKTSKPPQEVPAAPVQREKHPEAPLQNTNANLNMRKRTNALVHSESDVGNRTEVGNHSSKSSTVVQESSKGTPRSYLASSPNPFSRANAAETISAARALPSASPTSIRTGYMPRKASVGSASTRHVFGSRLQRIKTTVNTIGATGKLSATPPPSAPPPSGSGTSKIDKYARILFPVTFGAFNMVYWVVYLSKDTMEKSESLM
Glutamate receptor ionotropic, NMDA 2B, sequence (Q13224 whole entry, one chain of several): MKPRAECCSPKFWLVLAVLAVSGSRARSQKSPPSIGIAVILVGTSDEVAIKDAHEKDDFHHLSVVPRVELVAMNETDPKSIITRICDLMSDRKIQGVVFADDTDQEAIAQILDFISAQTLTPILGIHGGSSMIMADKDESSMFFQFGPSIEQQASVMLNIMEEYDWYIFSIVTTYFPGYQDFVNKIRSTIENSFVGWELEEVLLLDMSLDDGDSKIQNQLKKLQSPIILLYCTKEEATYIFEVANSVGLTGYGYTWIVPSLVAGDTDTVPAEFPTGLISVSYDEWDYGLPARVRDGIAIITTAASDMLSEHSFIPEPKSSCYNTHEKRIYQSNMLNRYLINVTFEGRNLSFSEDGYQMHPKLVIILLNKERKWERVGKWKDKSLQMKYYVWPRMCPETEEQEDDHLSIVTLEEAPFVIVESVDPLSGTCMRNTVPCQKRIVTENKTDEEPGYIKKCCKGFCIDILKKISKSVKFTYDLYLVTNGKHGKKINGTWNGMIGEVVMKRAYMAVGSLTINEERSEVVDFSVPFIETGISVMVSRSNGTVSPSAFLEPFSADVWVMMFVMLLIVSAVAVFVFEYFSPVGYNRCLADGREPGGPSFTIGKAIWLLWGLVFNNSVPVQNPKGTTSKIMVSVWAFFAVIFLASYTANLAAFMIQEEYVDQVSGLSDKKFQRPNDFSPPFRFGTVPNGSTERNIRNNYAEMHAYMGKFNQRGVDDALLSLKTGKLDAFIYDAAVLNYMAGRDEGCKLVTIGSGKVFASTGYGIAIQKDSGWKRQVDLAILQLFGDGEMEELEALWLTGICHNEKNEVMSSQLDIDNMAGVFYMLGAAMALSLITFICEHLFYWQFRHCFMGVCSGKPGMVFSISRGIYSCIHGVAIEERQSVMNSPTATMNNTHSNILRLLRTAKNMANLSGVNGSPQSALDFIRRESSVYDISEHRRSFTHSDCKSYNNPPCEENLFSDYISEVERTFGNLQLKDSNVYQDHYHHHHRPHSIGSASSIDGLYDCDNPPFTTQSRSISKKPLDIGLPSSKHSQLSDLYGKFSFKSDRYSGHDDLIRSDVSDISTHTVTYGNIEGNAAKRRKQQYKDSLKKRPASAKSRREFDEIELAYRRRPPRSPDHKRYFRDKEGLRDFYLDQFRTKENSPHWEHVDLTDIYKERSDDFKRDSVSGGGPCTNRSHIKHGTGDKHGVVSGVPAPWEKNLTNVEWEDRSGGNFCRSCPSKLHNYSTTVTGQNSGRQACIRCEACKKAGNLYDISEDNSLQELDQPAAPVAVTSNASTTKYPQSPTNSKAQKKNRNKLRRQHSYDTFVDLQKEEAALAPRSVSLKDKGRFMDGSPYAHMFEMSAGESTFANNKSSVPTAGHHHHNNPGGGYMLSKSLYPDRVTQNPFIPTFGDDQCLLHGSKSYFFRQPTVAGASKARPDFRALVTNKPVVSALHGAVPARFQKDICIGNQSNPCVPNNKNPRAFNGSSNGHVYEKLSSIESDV
T2 sequence (P22303 whole entry): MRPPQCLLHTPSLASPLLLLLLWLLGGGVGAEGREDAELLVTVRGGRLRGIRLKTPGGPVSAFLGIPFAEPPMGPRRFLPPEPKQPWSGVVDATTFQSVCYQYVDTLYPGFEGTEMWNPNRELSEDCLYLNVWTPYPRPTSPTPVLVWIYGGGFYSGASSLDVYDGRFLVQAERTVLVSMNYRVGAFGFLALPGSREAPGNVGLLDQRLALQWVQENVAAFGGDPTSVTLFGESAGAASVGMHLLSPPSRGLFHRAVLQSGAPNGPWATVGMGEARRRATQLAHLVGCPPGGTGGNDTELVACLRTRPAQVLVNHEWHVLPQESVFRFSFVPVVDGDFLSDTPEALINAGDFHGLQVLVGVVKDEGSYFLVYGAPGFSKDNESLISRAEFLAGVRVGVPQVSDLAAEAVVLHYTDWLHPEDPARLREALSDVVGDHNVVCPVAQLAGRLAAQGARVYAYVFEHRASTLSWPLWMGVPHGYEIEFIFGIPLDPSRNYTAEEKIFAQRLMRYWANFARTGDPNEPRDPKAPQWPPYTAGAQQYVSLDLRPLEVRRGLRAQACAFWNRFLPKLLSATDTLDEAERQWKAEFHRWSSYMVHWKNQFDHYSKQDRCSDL
T1 sequence (P06276 whole entry): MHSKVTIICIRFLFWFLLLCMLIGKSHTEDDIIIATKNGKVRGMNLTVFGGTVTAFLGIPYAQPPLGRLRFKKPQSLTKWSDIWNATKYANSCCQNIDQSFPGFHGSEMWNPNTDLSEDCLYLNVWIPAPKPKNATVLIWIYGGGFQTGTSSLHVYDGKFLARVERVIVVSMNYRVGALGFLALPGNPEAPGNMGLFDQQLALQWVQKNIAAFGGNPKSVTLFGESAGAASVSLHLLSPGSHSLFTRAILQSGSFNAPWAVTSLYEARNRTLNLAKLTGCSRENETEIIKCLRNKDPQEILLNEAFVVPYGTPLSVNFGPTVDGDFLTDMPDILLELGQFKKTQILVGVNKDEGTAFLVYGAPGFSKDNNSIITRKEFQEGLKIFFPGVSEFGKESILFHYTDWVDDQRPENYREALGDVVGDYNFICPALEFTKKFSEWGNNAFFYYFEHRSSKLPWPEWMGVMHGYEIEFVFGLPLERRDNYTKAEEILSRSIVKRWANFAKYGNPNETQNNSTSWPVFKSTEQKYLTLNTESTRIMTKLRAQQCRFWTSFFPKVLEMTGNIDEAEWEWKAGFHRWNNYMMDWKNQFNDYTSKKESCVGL
5-hydroxytryptamine receptor 5A, sequence (P47898 whole entry): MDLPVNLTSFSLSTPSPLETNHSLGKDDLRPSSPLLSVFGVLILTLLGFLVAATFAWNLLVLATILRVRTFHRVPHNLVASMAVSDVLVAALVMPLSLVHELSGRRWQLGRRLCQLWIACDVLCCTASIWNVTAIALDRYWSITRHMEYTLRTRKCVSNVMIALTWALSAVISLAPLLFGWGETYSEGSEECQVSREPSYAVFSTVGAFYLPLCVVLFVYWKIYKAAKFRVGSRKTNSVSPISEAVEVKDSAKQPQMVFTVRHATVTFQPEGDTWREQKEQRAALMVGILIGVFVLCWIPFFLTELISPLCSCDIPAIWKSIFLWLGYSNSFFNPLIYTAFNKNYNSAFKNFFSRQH

## O=C(CN1CCCCC1)Nc1ccc2nc3c4[nH]c5ccccc5c4ccn3c(=O)c2c1
[1]
  IC50: 5400 nM
[2]
  IC50: 10 nM

## Nc1cccc(-c2ccc(C(=O)N3CCc4c([nH]c5ccccc45)C3c3ccc4c(c3)OCO4)o2)c1 (stereo not drawn)
[3]
  Ki: 51 nM

## COc1cccc2[nH]c3c(c12)CCN=C3C
[4]
  Ki: 65 nM

## Oc1ccc2c3c([nH]c2c1)CN(CCCCc1ccccc1)CC3
[5]
  IC50: 50 nM

## COCc1c(C(=O)OC(C)C)ncc2[nH]c3ccc(OCc4ccccc4)cc3c12 [ABECARNIL]
[6]
  IC50: 1 nM
[7]
  Ki: 6400 nM
[8]
  Ki: 4 nM
[9]
  Ki: 1 nM
[10]
  Ki: 5 nM
[11]
  Ki: 2 nM
[12]
  Ki: 1200 nM

## CC(C)(C)OC(=O)c1cc2c(cn1)[nH]c1ccccc12
[6]
  IC50: 1 nM
[7]
  Ki: > 5000 nM
[8]
  Ki: 19 nM
[9]
  Ki: 0.7 nM
[10]
  Ki: 110 nM
[11]
  Ki: 15 nM
[12]
  Ki: 1000 nM

## O=C1CCC[C@@H]2c3[nH]c4ccccc4c3C[C@@H](CO)N12
[5]
  IC50: 30000 nM

## COc1cccc2[nH]c3c(c12)CCN=C3
[4]
  Ki: 65 nM

## CCCOc1cc2c(cn1)[nH]c1ccccc12
[6]
  IC50: 3 nM
[7]
  Ki: > 1000 nM
[8]
  Ki: 69 nM
[10]
  Ki: 590 nM
[11]
  Ki: 52 nM
[12]
  Ki: 1000 nM

## Cc1cc2cc3n(c(=O)c2cn1)CCc1c-3[nH]c2ccccc12
[1]
  IC50: 1000 nM
[2]
  IC50: 22000 nM

## O=C(CCN1CCCC1)Nc1ccc2c(c1)CN1CCc3c([nH]c4ccccc34)C1=N2
[1]
  IC50: 840 nM
[2]
  IC50: 29 nM

## Cn1c2ccccc2c2cc[n+](-c3ccc(Br)cc3Br)cc21
[13]
  IC50: 110 nM
[14]
  IC50: 110 nM

## CC(C)n1c2ccccc2c2cc[n+](-c3ccccc3)cc21
[15]
  IC50: 37000 nM
[16]
  IC50: 540 nM
[14]
  IC50: 3100 nM

## Cc1ccc2c(c1)c1cc[n+](-c3ccccc3)cc1n2C
[15]
  IC50: 17000 nM
[16]
  IC50: 420 nM
[14]
  IC50: 420 nM

## c1ccc(C[C@@H]2NCCc3c2[nH]c2ccccc32)cc1
[5]
  IC50: 27000 nM

## O=C(c1ccc(-c2ccc([N+](=O)[O-])cc2)o1)N1CCc2c([nH]c3ccccc23)C1c1ccc2c(c1)OCO2 (stereo not drawn)
[3]
  Ki: 64 nM

## C[n+]1ccc2c(c1)[nH]c1ccccc12 [NORMELINONINE F]
[15]
  IC50: 800 nM
[14]
  IC50: 4100 nM

## Nc1ccc(-c2ccc(C(=O)N3CCc4c([nH]c5ccccc45)C3c3ccc4c(c3)OCO4)o2)cc1 (stereo not drawn)
[3]
  Ki: 64 nM

## c1ccc2cc(-c3nccc4c3[nH]c3ccccc34)ccc2c1
[17]
  Ki: 1500 nM
[18]
  Ki: 1500 nM

## Oc1ccc(CCCN2CCc3c([nH]c4ccccc34)C2)cc1
[5]
  IC50: 87 nM

## CC(C)CCn1c2c(c3c(O)cc(O)cc31)CCn1c-2nc2ccccc2c1=O
[3]
  Ki: 86 nM

## CCCCCCCNC(=O)Oc1ccc2c(c1)CN1CCc3c([nH]c4ccccc34)C1N2C (stereo not drawn)
[1]
  IC50: 77 nM
[2]
  IC50: > 10000 nM

## COC(=O)c1cc2c(cn1)[nH]c1ccccc12 [BETA-CCM]
[6]
  IC50: 1 nM
[7]
  Ki: 4400 nM
[8]
  Ki: 72 nM
[9]
  Ki: 2 nM
[10]
  Ki: 44 nM
[11]
  Ki: 7 nM
[12]
  Ki: 1000 nM

## C#Cc1ccc2[nH]c3cnc(C(=O)OC(C)(C)C)cc3c2c1
[7]
  Ki: 2000 nM
[8]
  Ki: 100 nM
[9]
  Ki: 1 nM
[10]
  Ki: 210 nM
[12]
  Ki: 2000 nM

## c1ccc2c(c1)CN1CCc3c([nH]c4ccccc34)C1=N2
[1]
  IC50: 500 nM
[2]
  IC50: 3400 nM

## c1ccc(-c2nccc3c2[nH]c2ccccc23)cc1
[17]
  Ki: 1400 nM
[18]
  Ki: 1400 nM

## CN1c2ccc(OCc3ccccc3)cc2C(=O)N2CCc3c([nH]c4ccccc34)C21 (stereo not drawn)
[1]
  IC50: 880 nM
[2]
  IC50: 3000 nM

## COc1ccc(-c2cnc(N3CC(=O)c4c([nH]c5ccccc45)C3c3ccc4c(c3)OCO4)nc2)cc1OC (stereo not drawn)
[3]
  Ki: 9 nM

## Cc1ccc(-[n+]2ccc3c4ccccc4n(C)c3c2)cc1
[15]
  IC50: 32000 nM and 116000 nM
[16]
  IC50: 290 nM and 300 nM
[13]
  IC50: 240 nM

## Oc1ccc2[nH]c3c(c2c1)CCN(CCCCc1ccccc1)C3
[5]
  IC50: 140 nM

## CCOC(=O)[n+]1ccc2c([nH]c3cc(OC)ccc32)c1C
[15]
  IC50: 1500 nM
[16]
  IC50: 250 nM
[14]
  IC50: 250 nM

## O=C1c2ccccc2-[n+]2ccc3c([nH]c4ccccc43)c21 [FASCAPLYSIN]
[1]
  IC50: 90000 nM
[2]
  IC50: 1500 nM
